From patent publication US20260250278A1, “PHENYL-SUBSTITUTED DIHYDRONAPHTHYRIDINE COMPOUNDS, AND PREPARATION AND USE THEREOF” (SUZHONG PHARMACEUTICAL GROUP CO., LTD., priority 2022, published 2026)

Columns and labels:
[1] = system: diabetic nephropathy mouse model; assay: Pharmacodynamic effects on diabetic nephropathy mouse model; type: in vivo; conditions: KK-Ay mice
Protocol: The pharmacodynamic effects of the compounds 36 and 62 on the diabetic nephropathy mouse model were evaluated.
• Strain: C57BL/6 mice, and KK-Ay mice • Weeks of age: the animals were raised to 6 weeks to 8 weeks of age, and the experiment was started when the animals were 7 weeks to 9 weeks of age • Sex: male • Weight: C57BL/6 mice: 21 g to 23 g, and KK-Ay mice: 25 g to 30 g • Number: 72 experimental animals
On the day of administration, the animals were randomly divided into 9 groups according to their weights, comprising a model group (KK-Ay+solvent), a Finerenone group (KK-Ay+Finerenone: 3 mg/kg), a low-dose compound 62 group (KK-Ay+compound 62: 1 mg/kg), a middle-dose compound 62 group (KK-Ay+compound 62: 3 mg/kg) and high-dose compound 62 group (KK-Ay+compound 62: 10 mg/kg), a low-dose compound 36 group (KK-Ay+compound 36: 1 mg/kg), a middle-dose compound 36 group (KK-Ay+compound 36: 3 mg/kg) and a high-dose compound 36 group (KK-Ay+compound 36: 10 mg/kg). Specific grouping and administration schemes referred to Table 70-2.
When the experiment was started, 24-hour urine of the mice was collected by a metabolic cage in 2nd, 4th, 6th and 8th weeks before and after modeling, and microalbumin (MALB) and creatinine (CREA) contents of the urine were detected by CANON TBA-120FR automatic blood biochemistry to calculate (MALB/CREA).
When the experiment was ended, the mice were euthanized, the blood was taken by heart puncture and put into an anticoagulant-free EP tube, allowed to stand at room temperature for 0.5 hour, and then centrifuged at 4° C. and 6000 g for 15 minutes, and the serum was collected and transferred to a new EP tube, and stored in a refrigerator at −80° C. An insulin content of the serum and serum ions were detected by an ELISA method.
After the experiment was ended, the kidneys of all animals were dissected and collected, fixed in formalin, embedded and made into sections for PAS staining and Masson staining, and then quantitatively analyzed.
Experimental results were expressed as “mean value±standard deviation”. The data of each group were statistically analyzed by GraphPad 8.0 software, and p<0.05 was considered to be statistically significant.

[2] = Pharmacokinetic test of mice (intravenous administration); type: in vivo; conditions: mouse, plasma; CD1 mice, intravenous 1 mg/kg
Protocol: This experiment was intended to evaluate a pharmacokinetic behavior of a compound after intravenous injection or intragastric administration in the mice. Intravenous injection administration: a test compound was prepared into 0.2 mg/mL clear solution, a solvent was 10% ethanol/40% polyethylene glycol 400/50% ultrapure water, and after administration, plasma was collected 0.083 hour, 0.25 hour, 0.5 hour, 1 hour, 2 hours, 4 hours, 8 hours, 24 hours and 48 hours later.
A concentration of the test compound in the plasma was determined by high-performance liquid chromatography-tandem mass spectrometry (LC-MS/MS). Retention time, chromatogram collection and chromatogram integration of compounds and internal standards were treated by software Analyst (Applied Biosystems), and data statistics was treated by software Analyst (Applied Biosystems).
A plasma concentration was treated by a non-atrioventricular model of Winnonlin™ Version 6.1 (Pharsight, Mountain View, CA) pharmacokinetic software, and pharmacokinetic parameters were calculated by a linear logarithmic trapezoid method.

What does the source list for `CCOc1ncc(C)c2c1[C@H](c1ccc(C#N)c3c1OCC3)C(C(N)=O)=C(C)N2` [Example 36, (S)-4-(4-cyano-2,3-dihydrobenzofuran-7-yl)-5-ethoxy-2,8-dimethyl-1,4-dihydro-1,6-naphthyridine-3-formamide]?
diabetic nephropathy and hypertension [1]: improve; urinary protein/creatinine ratio [1]: significantly reduce; urinary sodium excretion [1]: significantly promote; AUC(0-t) [2]: 206 µg·h/mL

With `CCOc1ncc(C)c2c1[C@H](c1ccc(C#N)c3c1OCO3)C(C(N)=O)=C(C)N2` [Example 62, (S)-4-(7-cyanobenzo[d][1,3]dioxol-4-yl)-5-ethoxy-2,8-dimethyl-1,4-dihydro-1,6-naphthyridine-3-formamide] as the molecule, how does the “diabetic nephropathy and hypertension” value [1] read?
Its value is “improve”.

And the urinary protein/creatinine ratio [1]?
The urinary protein/creatinine ratio was “significantly reduce”.

And the urinary sodium excretion [1]?
Its urinary sodium excretion is “significantly promote”.

And the AUC(0-t) [2]?
The AUC(0-t) was 201 µg·h/mL.
